Key:
SKBR3 cells = test: Caspase 3/7 activity assay; type: cell-based; conditions: SKBR3, 24 hours
Method: (§1) The assay was performed using a similar protocol to the one described by Fritz et al (Fritz et al., 2001). Cells were seeded at a density of 10,000 cells/well and treated with different concentrations of HS-106 or C75. After 24 hours, to each well, 50 μl of Caspase assay/lysis buffer (50 mM HEPES pH 7.5, 100 mM KCl, 5 mM EDTA, 10 mM MgC12, 10 mM CHAPS, 20% Sucrose, 10 mM DTT, 10 μM of (Z-DEVD)2-Rh110 (Santa Cruz Biotech) and complete protease inhibitor (Roche))was added. After 6 hours of incubation at 37° C., fluorescence was measured at Ex/Em: 485/535 nm.

BT474 cells = test: Caspase 3/7 activity assay; type: cell-based; conditions: BT474, 24 hours
Method: as §1

HIV-1 = type: cell-based
Method: (A) TZM-bl cells were transfected with pNL4-3 provirus plasmid for 48 h in the presence or absence of 10 μM Fasnall or C75 or DMSO (0.01%). Intracellular expression of HIV-1 proteins was monitored by HIVIG-western blot, and β-actin was used as loading control. (B) Supernatant associated virion production was monitored using a p24 ELISA. (C) 48 hours post-transfection, cell culture supernatants were removed and incubated with fresh TZM-bl (indicator) cells for an additional 48 hrs. Values expressed as the mean±standard deviation, and are representative of three independent experiments. p-values were generated with student's t-test. Molecular weight markers (kD) indicated in right margin.
To test further the hypothesis that HIV-1 replication requires FASN activity during the late stages of viral replication, TZM-bl or SupT1 (data not shown) cells were transfected with a HIV-1 provirus (pNL43) in the presence or absence of Fasnall or C75. […] Thus, FASN inhibition reduces nascent HIV-1 virion production without reducing HIV-1 protein synthesis.

FASN = target: T1, FASN (Sus scrofa, UniProt A5YV76); test: FLECS screen, elution of fluorescein labeled proteins from Cibacron blue resin; type: binding, porcine; conditions: SDS-PAGE and mass spectrometry
T1 construct: from tissue; host or cells: lactating porcine mammary gland extract
From the text: To specifically identify inhibitors of FASN targeting its nucleotide binding pockets Cibacron blue Sepharose was utilized. This medium has been used previously to purify NAD and NADP binding proteins from crude tissues extracts (Miyaguchi et al., 2011; Muratsubaki et al., 1994). FASN enriched extract from lactating pig mammary gland was bound to the resin and labeled with cysteine reactive fluorescein. […] One hundred and fifty-five of the molecules selectively eluted FASN from the resin, and 20 potential lead compounds were progressed according to their FASN selectivity (assessed with SDS-PAGE, silver staining and mass spectrometry). These twenty compounds were reduced to 13 based on the absence of any obvious chemical liabilities. Next, the molecules were tested for their ability to inhibit FASN activity in a HepG2 cell based assay that measured the incorporation of ^3H glucose into lipids (FIG. 1B and FIG. 9).
Porcine mammary glands were collected from lactating pigs as previously described (Hughes et al., 2012). Tissues were homogenized in lysis buffer A (100 mM sodium fluoride, 5 mM EDTA, 1 mM DTT and 5% glycerol made in 10 mM sodium phosphate buffer pH 7.5) in a ratio of 3 ml of buffer per each gram of tissue. […] Fluorescence in each well was measured at Ex/Em: 485/535 nm. […]

[1] = Cellular toxicity / viability in the TZM-bl model; conditions: human, TZM-bl cells
From the text: (§2) The data presented are mean values (±SD) from three independent experiments. ** Indicates p<0.0001, treatment versus DMSO-treated control (Students t-test).

TZM-bl cells = test: Cellular toxicity / viability in the TZM-bl model
From the text: as §2

T1 sequence (A5YV76 entry or part of it): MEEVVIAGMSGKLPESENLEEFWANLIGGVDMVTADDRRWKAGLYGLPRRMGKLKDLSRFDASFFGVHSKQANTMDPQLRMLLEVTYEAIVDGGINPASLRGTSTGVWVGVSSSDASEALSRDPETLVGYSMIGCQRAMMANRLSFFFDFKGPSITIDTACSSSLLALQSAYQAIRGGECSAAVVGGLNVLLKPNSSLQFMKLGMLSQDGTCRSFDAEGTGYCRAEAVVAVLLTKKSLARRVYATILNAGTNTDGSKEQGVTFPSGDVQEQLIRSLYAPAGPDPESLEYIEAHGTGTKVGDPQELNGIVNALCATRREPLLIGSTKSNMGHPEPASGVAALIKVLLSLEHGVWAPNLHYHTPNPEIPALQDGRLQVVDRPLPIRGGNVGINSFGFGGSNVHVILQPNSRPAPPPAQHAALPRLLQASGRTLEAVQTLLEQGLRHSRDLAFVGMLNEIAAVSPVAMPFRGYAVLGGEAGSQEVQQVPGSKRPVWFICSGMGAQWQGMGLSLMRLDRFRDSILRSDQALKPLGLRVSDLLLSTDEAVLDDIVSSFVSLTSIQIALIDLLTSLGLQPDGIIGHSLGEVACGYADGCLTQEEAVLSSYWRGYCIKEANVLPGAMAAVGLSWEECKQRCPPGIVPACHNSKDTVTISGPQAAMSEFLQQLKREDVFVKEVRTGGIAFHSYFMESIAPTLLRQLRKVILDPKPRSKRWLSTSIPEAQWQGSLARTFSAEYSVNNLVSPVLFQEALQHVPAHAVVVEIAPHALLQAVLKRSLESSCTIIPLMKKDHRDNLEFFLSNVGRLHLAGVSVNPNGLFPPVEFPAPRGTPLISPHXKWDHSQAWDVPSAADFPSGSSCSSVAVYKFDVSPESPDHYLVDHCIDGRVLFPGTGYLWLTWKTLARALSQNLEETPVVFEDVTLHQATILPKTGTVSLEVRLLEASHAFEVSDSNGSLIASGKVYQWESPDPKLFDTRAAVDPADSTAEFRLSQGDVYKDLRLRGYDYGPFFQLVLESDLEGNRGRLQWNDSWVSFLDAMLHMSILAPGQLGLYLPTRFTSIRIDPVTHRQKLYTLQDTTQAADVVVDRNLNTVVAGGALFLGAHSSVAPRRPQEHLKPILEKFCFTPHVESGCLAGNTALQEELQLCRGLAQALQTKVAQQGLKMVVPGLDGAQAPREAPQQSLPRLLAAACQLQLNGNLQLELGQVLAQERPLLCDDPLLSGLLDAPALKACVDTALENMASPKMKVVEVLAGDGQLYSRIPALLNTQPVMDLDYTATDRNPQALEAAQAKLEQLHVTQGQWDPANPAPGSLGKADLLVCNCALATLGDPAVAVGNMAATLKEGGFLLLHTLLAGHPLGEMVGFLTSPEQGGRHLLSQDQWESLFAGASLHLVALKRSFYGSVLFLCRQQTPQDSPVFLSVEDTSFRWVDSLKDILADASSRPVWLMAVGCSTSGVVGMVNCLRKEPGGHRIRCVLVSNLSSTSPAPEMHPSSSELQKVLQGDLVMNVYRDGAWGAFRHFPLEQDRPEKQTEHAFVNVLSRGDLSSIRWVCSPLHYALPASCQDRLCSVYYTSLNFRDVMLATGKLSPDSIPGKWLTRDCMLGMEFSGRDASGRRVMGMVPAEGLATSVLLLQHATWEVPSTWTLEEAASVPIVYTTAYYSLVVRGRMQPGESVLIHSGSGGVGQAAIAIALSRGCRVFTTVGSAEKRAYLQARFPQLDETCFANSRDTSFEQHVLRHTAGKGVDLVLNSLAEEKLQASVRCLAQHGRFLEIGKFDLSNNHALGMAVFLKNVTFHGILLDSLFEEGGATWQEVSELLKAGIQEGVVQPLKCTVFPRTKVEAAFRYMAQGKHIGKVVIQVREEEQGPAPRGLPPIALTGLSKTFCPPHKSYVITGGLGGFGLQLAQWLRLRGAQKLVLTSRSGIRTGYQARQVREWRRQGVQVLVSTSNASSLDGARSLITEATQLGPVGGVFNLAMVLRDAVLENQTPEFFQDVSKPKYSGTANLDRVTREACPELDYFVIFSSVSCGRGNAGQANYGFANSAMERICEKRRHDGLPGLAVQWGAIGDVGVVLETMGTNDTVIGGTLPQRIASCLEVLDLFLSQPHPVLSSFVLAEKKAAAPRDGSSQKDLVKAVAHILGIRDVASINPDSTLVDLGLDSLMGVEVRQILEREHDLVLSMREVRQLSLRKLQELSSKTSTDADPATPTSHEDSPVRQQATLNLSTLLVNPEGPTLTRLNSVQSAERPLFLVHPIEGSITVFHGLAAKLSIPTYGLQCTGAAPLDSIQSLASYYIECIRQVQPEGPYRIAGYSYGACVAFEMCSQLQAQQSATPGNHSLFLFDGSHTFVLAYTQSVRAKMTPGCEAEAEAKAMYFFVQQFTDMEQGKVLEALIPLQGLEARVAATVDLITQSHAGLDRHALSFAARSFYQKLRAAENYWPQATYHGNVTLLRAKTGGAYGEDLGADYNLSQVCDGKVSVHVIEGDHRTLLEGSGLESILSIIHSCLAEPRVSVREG
Method for PBMC: Unfixed PBMCs were exposed to drug for 48 hours, and PBMC viability was assessed by flow cytometry using propidium iodine (PI) exclusion (BD Pharmingen) and Annexin V staining (BD Pharmingen). Viable cells are defined as cells that both exclude PI and are Annexin V negative.

Cc1sc2ncnc(NC3CCN(Cc4ccccc4)C3)c2c1C (racemic) [HS-106, N-(1-benzylpyrrolidin-3-yI)-5,6-dimethylthieno[2,3-d]pyrimidin-4-amine]
caspase activity relative to MCF10A cells (SKBR3 cells): 2 fold
caspase activity relative to MCF10A cells (BT474 cells): 10 fold
HIV-1 p24 particle deposition into culture medium (HIV-1; TZM-bl, 10 μM, 48 h): significantly reduce HIV-1 p24 particle deposition into culture medium
intracellular Gag levels (HIV-1; TZM-bl, 10 μM, 48 h): did not reduce intracellular Gag levels
number of infectious HIV-1 particles (HIV-1; supernatants on fresh TZM-bl indicator cells): similarly reduced the number of infectious HIV-1 particles
elution of FASN from Cibacron blue resin (hit strength / selectivity) (FASN): selectively elutes FASN
effect on PBMC viability (PBMC): negligible effects on cell viability
CC50 [1]: 10 µM
TZM-bl cell viability (MTT-activity) (TZM-bl cells): without significant effects on TZM-bl cell viability
